Columns and labels:
[1] = system: IFN-γ-producing and IL-4-producing cells; assay: IL-4 and IFN-γ secreting cells (ELISPOT) in skin-draining lymph nodes and spleens; type: in vivo, BALB/c mice
[2] = system: A/California/07/2009 virus; assay: Neutralizing antibody titers by microneutralization assay in sera of vaccinated mice; type: in vivo, BALB/c mice; conditions: by week 8; vs vehicle-vaccinated and vaccine alone
[3] = system: contact hypersensitivity; conditions: topical application; associated with increases in several chemoattractant chemokines; cited from earlier work
[4] = system: influenza-specific binding IgG antibodies; assay: Virus-specific (total vaccine-reactive) antibody levels by ELISA; type: in vivo, BALB/c mice; conditions: between the three groups (EGFRI, vehicle, vaccine only)
[5] = system: CCL2; assay: Steady state mRNA levels of immune genes in skin after topical application; type: in vivo, Balb/c mice; conditions: topical application to dorsal skin, six hour time point
Description: The topical application of the irreversible EGFR inhibitor PD168393 can enhance the elicitation phase of contact hypersensitivity in a manner that is associated with increases in several chemoattractant chemokines. During EGFRI therapy there are changes in immune gene expression even in clinically normal (non-inflamed) skin). To determine how EGFR inhibition alters immune gene expression, PD168393 or vehicle (10% DMSO in ethanol) was applied to the backs of Balb/c mice (5 mice per group) and steady state mRNA levels of several genes were measured. A six hour time point was selected for these experiments. […] This increase was observed independent of the reference housekeeping gene used in the analysis. In contrast, steady state levels of the housekeeping genes and several other genes analyzed were unchanged by topical PD168393 at this time point. These studies indicate that a single application of an EGFRI to mouse skin can alter the expression of chemokines that are known to influence immune cell trafficking into the skin.

[6] = system: vaccine-specific IgM-secreting cells and IgG-secreting cells; assay: Vaccine-specific antibody secreting cells (ELISPOT) in skin draining lymph nodes and spleen; type: in vivo, BALB/c mice
[7] = system: A/California/07/09 (H1N1) influenza virus; assay: Hemagglutination inhibition (HAI) titers in sera of vaccinated mice; type: in vivo, BALB/c mice

C=CC(=O)Nc1ccc2ncnc(Nc3cccc(Br)c3)c2c1 [PD168393, N-[4-(3-bromoanilino)quinazolin-6-yl]prop-2-enamide]
numbers of activated influenza-specific immune cells as defined by IFN-γ and IL-4 secretion ([1]; one week post immunization, vs vehicle-vaccinated mice): higher numbers | numbers of IL-4 secreting cells ([1]; skin-draining lymph nodes, one week post immunization, vs vehicle-vaccinated mice): 3 fold | numbers of IFN-γ secreting cells ([1]; skin-draining lymph nodes, one week post-vaccination, vs vaccine-vehicle cohort): 4 fold | levels of IL-4 secreting lymphocytes ([1]; skin-draining lymph nodes, two weeks post immunization, vs vehicle): significantly higher | difference in numbers of IFN-γ secreting cells ([1]; skin-draining lymph nodes, two weeks post vaccination, vs vaccine-vehicle cohort): absent | numbers of IL-4 and IFN-γ secreting cells in spleens ([1]; spleens, EGFRI- vs vehicle-vaccinated mice): no differences | NT titers [2]: increased relative to both control groups | elicitation phase of contact hypersensitivity [3]: enhance | total vaccine-reactive antibodies [4]: no differences | steady state levels of the housekeeping genes and several other genes [5]: unchanged | steady state mRNA levels of the chemokine CCL2 ([5]; vs vehicle (10% DMSO in ethanol)): statistically significant increase | numbers of IgG-secreting cells ([6]; skin draining lymph nodes, 1 and 2 weeks post vaccination, vs vehicle-vaccinated mice): significantly higher | number of IgG secreting cells ([6]; skin draining lymph nodes, day 14, vs vehicle-vaccinated mice): twice as high | number of IgM secreting cells ([6]; skin draining lymph nodes, seven days post vaccination, vs vehicle-vaccinated mice): double | number of cells producing influenza-specific antibodies ([6]; skin-draining lymph nodes, topical treatment prior to vaccination): increase | cellular responses in the spleen (antibody secreting cells) ([6]; spleen, EGFRI- vs vehicle-vaccinated mice): without any notable differences | HAI titers, difference to vaccine alone or vehicle-vaccine group ([7]; as early as week 4): two-fold higher | functionally relevant humoral immune responses ([7]; single application at site just prior to intradermal vaccination, vs vehicle (10% DMSO in ethanol)-treated mice): significantly higher | HAI titers ([7]; single topical application at site just prior to intradermal vaccination, vs vehicle-vaccine and vaccine only): significantly higher
